Where “and” joins values, the source holds several entries; their conditions need not be identical. Identical values can stand only once.
What was measured:
BRD4 BD1 protein = BRD4 BD1 protein (Homo sapiens (Human), UniProt O60885); experiment: Fluorescence polarization binding affinity (Ki) with BRD4 BD1 protein; settings: fluorescence polarization; Ki calculated from IC50
[1] = system: leukemia MV4-11 cell line; experiment: Cell viability (CCK-8), leukemia MV4-11; type: cell-based; settings: Homo sapiens, 96 h; MV4-11 cells, 4 days, CCK-8, 50% inhibition of cell growth
Experimental: (§1) 3. Determination of cell viability of the compound
(§2) The sample to be tested was dissolved with 100% dimethyl sulfoxide to prepare a 20 mM stock solution of the compound, which was diluted with 100% dimethyl sulfoxide to the highest compound concentration required for the experiment (2.5 mM).
(§3) First, 145 uL of a complete cell culture medium was added to wells B1-G1 of a 96-well flat-bottomed tansparent cell culture plate, and 100 uL of the complete medium was added to wells B2-G12, respectively. Then, 5 uL of the 2.5 mM solution of the compound was added to wells B1-D1 and E1-G1 respectively, and then diluted gradiently by 3-folds to B12-D12 and E12-G12 in sequence. Finally, 50 uL of the solution of the cells to be tested was added to each well, with about 3000-5000 cells per well, and a total volume of 150 uL per well.
(§4) In the experiment, in addition to the tested compound, two other control groups were set up: 1) a control group adding the cells and the complete medium, but without adding the compound; 2) a control group adding the complete medium only, without adding the cells and the compound. The 96-well plate was placed in a 37° C. cell culture incubator containing 5% carbon dioxide for 4 days, added with 15 uL of a CCK-8 reagent per well, and then incubated at 37° C. for 2-4 hours. The 96-well plate was read on a TECAN microplate reader, and the absorbance value at 450 nm wavelength was taken.
(§5) The effect of different concentrations of the compound on cell viability was calculated by the following equation: [absorption value of the experimental group−absorption value of pure cell culture medium without the cells or the compound]/[absorption value of the control group with the tumor cells but no testing compound−absorption value of pure cell culture medium without the cell or the compound]×100%.
(§6) The above data were precessed by software, and the IC50 value was the concentration of the compound corresponding to the 50% inhibition rate of cell growth.
(§7) Based on the above test method of the compound on cell viability, a variety of […] cancer cell lines were tested, using multiple myeloma MM.1S, breast cancer MDA-MB-231 and leukemia MV4-11 cell lines as exemples. Using this test method, the IC50 values of partial compounds in the examples of the present invention measured in multiple myeloma MM.1S, breast cancer MDA-MB-231 cell lines and leukemia MV4-11 cell lines were shown in Table 2.

BRD4 BD2 protein = BRD4 BD2 protein (Homo sapiens (Human), UniProt O60885); experiment: Fluorescence polarization binding affinity (Ki) with BRD4 BD2 protein; parameters: BRD4 BD2 Ki: reference not given here; settings: fluorescence polarization; Ki calculated from IC50
[2] = system: multiple myeloma MM.1S cell line; experiment: Cell viability (CCK-8), multiple myeloma MM.1S; type: cell-based; settings: Homo sapiens, MM1.S, 96 h, MM.1S cells, 4 days, CCK-8, 50% inhibition of cell growth
How it was run: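 Cells (about 3000-5000 per well) exposed to 3-fold serial dilutions of compound for 4 days at 37° C, 5% CO2. CCK-8 added 2-4 h, absorbance at 450 nm, viability normalised to untreated cells after medium-only blank subtraction; IC50 is concentration giving 50% growth inhibition.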

[3] = system: breast cancer MDA-MB-231 cell line; experiment: Cell viability (CCK-8), breast cancer MDA-MB-231; type: cell-based; settings: Homo sapiens, 96 h; MDA-MB-231 cells, 4 days, CCK-8, 50% inhibition of cell growth
Experimental: as §1, §2, §3, §4, §5, §6, §7

| Ki (BRD4 BD1 protein) | IC50 [2] [nM] | Ki (BRD4 BD2 protein) | IC50 [3] [nM] | Structure (SMILES) | IC50 [1] [nM] | BRD4 BD2 Ki (BRD4 BD2 protein) |
| --- | --- | --- | --- | --- | --- | --- |
| 7.8 nM | 25.2 | – | – | CNC(=O)Cc1ccccc1NC1CCn2nnc(C)c2-c2ccc(-c3cnn(C)c3)cc21 (stereo not shown) [LC11, N-methyl-2-(2-((1-methyl-9-(1-methyl-1H-pyrazol-4-yl)-6,7-dihydro-5H-benzo[c][1,2,3]triazolo[1,5-a]azepin-7-yl)amino)phenyl)acetamide] | 15.4 | <Kd |
| 710 nM | 119 | 13.4 nM | – | Cc1nnn2c1-c1ccc(C3=CCN(C4CCCCC4)CC3)cc1C(Nc1cccc(Cl)c1)CC2 (stereo not shown) [BH104, N-(3-chlorophenyl)-9-(1-cyclohexyl-1,2,3,6-tetrahydropyridin-4-yl)-1-methyl-6,7-dihydro-5H-benzo[c][1,2,3]triazolo[1,5-a]azepin-7-amine 2,2,2-trifluoroacetate] | 1.32 | – |
| 1620 nM | 248 | 12.9 nM and 27.9 nM | – | Cc1nnn2c1-c1ccc(C3=CCN(C4CCCC4)CC3)cc1C(Nc1cc(Cl)ccc1F)CC2 (stereo not shown) [BH190, N-(5-chloro-2-fluorophenyl)-9-(1-cyclopentyl-1,2,3,6-tetrahydropyridin-4-yl)-1-methyl-6,7-dihydro-5H-benzo[c][1,2,3]triazolo[1,5-a]azepin-7-amine 2,2,2-trifluoroacetate] | 62.8 | – |
| 1720 nM | 1300 | 28.8 nM | – | Cc1nnn2c1-c1ccc(C3=CCN(C4CCCCC4)CC3)cc1C(Nc1cc(Cl)ccc1F)CC2 (stereo not shown) [BH187, N-(5-chloro-2-fluorophenyl)-9-(1-cyclohexyl-1,2,3,6-tetrahydropyridin-4-yl)-1-methyl-6,7-dihydro-5H-benzo[c][1,2,3]triazolo[1,5-a]azepin-7-amine 2,2,2-trifluoroacetate] | 106 | – |
| 94.6 nM | < 1 | 16.1 nM | – | Cc1nnn2c1-c1ccc(-c3cnn(C)c3)cc1C(Nc1ccccc1CO)CC2 (stereo not shown) [LB192, (2-((1-methyl-9-(1-methyl-1H-pyrazol-4-yl)-6,7-dihydro-5H-benzo[c][1,2,3]triazolo[1,5-a]azepin-7-yl)amino)phenyl)methanol] | < 0.1 | – |
| 106 nM | 6.15 | 3.45 nM | – | CC(=O)N1CC=C(c2ccc3c(c2)C(Nc2cc(Cl)ccc2F)CCn2nnc(C)c2-3)CC1 (stereo not shown) [BH192, 1-(4-(7-((5-chloro-2-fluorophenyl)amino)-1-methyl-6,7-dihydro-5H-benzo[c][1,2,3]triazolo[1,5-a]azepin-9-yl)-3,6-dihydropyridin-1 (2H)-yl)ethan-1-one] | 0.21 | – |
| 95.7 nM | 26 | 12.7 nM | – | Cc1nnn2c1-c1ccc(-c3cnn(C)c3)cc1C(Nc1cccc(CO)c1)CC2 (stereo not shown) [LB164, (3-((1-methyl-9-(1-methyl-1H-pyrazol-4-yl)-6,7-dihydro-5H-benzo[c][1,2,3]triazolo[1,5-a]azepin-7-yl)amino)phenyl)methanol] | 39.3 | – |
| 45.8 nM | 1.1 | 14 nM | 105 | Cc1nnn2c1-c1ccc(-c3cnc4[nH]cnc4c3)cc1C(Nc1ccc(Cl)cc1)CC2 (stereo not shown) [RB43, N-(4-chlorophenyl)-9-(3H-imidazo[4,5-b]pyridin-6-yl)-1-methyl-6,7-dihydro-5H-benzo[c][1,2,3]triazolo[1,5-a]azepin-7-amine] | – | – |
| 45 nM | 2.03 | 10.9 nM | 43 | COC(=O)c1ccc(NC2CCn3nnc(C)c3-c3ccc(-c4cnn(C)c4)cc32)cc1 (stereo not shown) [LB37, methyl 4-((1-methyl-9-(1-methyl-1H-pyrazol-4-yl)-6,7-dihydro-5H-benzo[c][1,2,3]triazolo[1,5-a]azepin-7-yl)amino)benzoate] | – | – |
| 83.1 nM | 6.05 | 55.9 nM | 89 | COc1ccc2c(c1)C(Nc1ccc(C#N)cc1)CCc1onc(C)c1-2 (stereo not shown) [FA06, 4-(8-methoxy-1-methyl-5,6-dihydro-4H-benzo[6,7]cyclohepta[1,2-d]isoxazol-6-yl)aminobenzonitrile] | – | – |
| 45.1 nM | 2.5 | 16.5 nM | 65 | Cc1nnn2c1-c1ccc(-c3cn(C)nn3)cc1C(Nc1ccc(Cl)cc1)CC2 (stereo not shown) [RB48, N-(4-chlorophenyl)-1-methyl-9-(1-methyl-1H-1,2,3-triazol-4-yl)-6,7-dihydro-5H-benzo[c][1,2,3]triazolo[1,5-a]azepin-7-amine] | – | – |
| 94.8 nM | 4.28 | 26.9 nM | 450 | Cc1nnn2c1-c1ccc(-c3cnn(C)c3)cc1C(Nc1ccccc1N(C)C)CC2 (stereo not shown) [LB01, N^1,N^1-dimethyl-N^2-(1-methyl-9-(1-methyl-1H-pyrazol-4-yl)-6,7-dihydro-5H-benzo[c][1,2,3]triazolo[1,5-a]azepin-7-yl)benzene-1,2-diamine] | – | – |

| Structure (SMILES) | Ki (BRD4 BD1 protein) | IC50 [2] [nM] | Ki (BRD4 BD2 protein) | IC50 [3] [nM] | IC50 [1] [nM] | BRD4 BD2 Ki (BRD4 BD2 protein) |
| --- | --- | --- | --- | --- | --- | --- |
| Cc1nnn2c1-c1ccc(C3=CCN(C(C)C)CC3)cc1[C@H](Nc1cccc(Cl)c1)CC2 [RE13 (R), (7R)—N-(3-chlorophenyl)-9-(1-isopropyl-1,2,3,6-tetrahydropyridin-4-yl)-1-methyl-6,7-dihydro-5H-benzo[c][1,2,3]triazolo[1,5-a]azepin-7-amine 2,2,2-trifluoroacetate] | 1420 nM | 546 | 14.8 nM | – | 126 | – |
| CCN1CC=C(c2ccc3c(c2)C(Nc2ccc(Cl)cc2)CCn2nnc(C)c2-3)CC1 (stereo not shown) [LD23, N-(4-chlorophenyl)-9-(1-ethyl-1,2,3,6-tetrahydropyridin-4-yl)-1-methyl-6,7-dihydro-5H-benzo[c][1,2,3]triazolo[1,5-a]azepin-7-amine 2,2,2-trifluoroacetate] | 334 nM | 443 | 41.5 nM | – | 7.32 | – |
| Cc1nnn2c1-c1ccc(C3=CCN(C4CCCCC4)CC3)cc1C(Nc1ccc(F)c(Cl)c1)CC2 (stereo not shown) [LD76, N-(3-chloro-4-fluorophenyl)-9-(1-cyclohexyl-1,2,3,6-tetrahydropyridin-4-yl)-1-methyl-6,7-dihydro-5H-benzo[c][1,2,3]triazolo[1,5-a]azepin-7-amine 2,2,2-trifluoroacetate] | 1060 nM | 879 | 10.7 nM and 36.1 nM | – | 106 | – |
| Cc1nnn2c1-c1ccc(C3=CCN(C(C)C)CC3)cc1C(Nc1ccc(Cl)cc1)CC2 (stereo not shown) [LD24, N-(4-chlorophenyl)-9-(1-isopropyl-1,2,3,6-tetrahydropyridin-4-yl)-1-methyl-6,7-dihydro-5H-benzo[c][1,2,3]triazolo[1,5-a]azepin-7-amine 2,2,2-trifluoroacetate] | 293 nM | 447 | 21.6 nM | – | 19 | – |
| Cc1nnn2c1-c1ccc(C3=CCN(C4CCC4)CC3)cc1C(Nc1cccc(Cl)c1)CC2 (stereo not shown) [BH159, N-(3-chlorophenyl)-9-(1-cyclobutyl-1,2,3,6-tetrahydropyridin-4-yl)-1-methyl-6,7-dihydro-5H-benzo[c][1,2,3]triazolo[1,5-a]azepin-7-amine 2,2,2-trifluoroacetate] | 879 nM | 285 | 9.31 nM | – | 75.2 | – |
| CNC(=O)Cc1cccc(NC2CCn3nnc(C)c3-c3ccc(-c4cnn(C)c4)cc32)c1 (stereo not shown) [LC10, N-methyl-2-(3-((1-methyl-9-(1-methyl-1H-pyrazol-4-yl)-6,7-dihydro-5H-benzo[c][1,2,3]triazolo[1,5-a]azepin-7-yl)amino)phenyl)acetamide] | 69.3 nM | 104 | – | – | 12.8 | <Kd |
| CCN1CC=C(c2ccc3c(c2)C(Nc2cccc(Cl)c2)CCn2nnc(C)c2-3)CC1 (stereo not shown) [BH36, N-(3-chlorophenyl)-9-(1-ethyl-1,2,3,6-tetrahydropyridin-4-yl)-1-methyl-6,7-dihydro-5H-benzo[c][1,2,3]triazolo[1,5-a]azepin-7-amine 2,2,2-trifluoroacetate] | 717 nM and 1400 nM | 146 | 13.8 nM and 16 nM | – | 57.5 | – |

Source: patent US12286435B2, “Compound having benzo seven-membered ring structure, preparation method therefor, and use thereof” (BIONNA (BEIJING) MEDICAL TECHNOLOGY CO., LTD., priority 2019, dated 2025)
